Measurements as given in paper PMC9061999, “Application of the Adverse Outcome Pathway Concept to In Vitro Nephrotoxicity Assessment: Kidney Injury due to Receptor-Mediated Endocytosis and Lysosomal Overload as a Case Study” (Frontiers in Toxicology, 2022).

Legend:
[1] = test system: NRK-52E cells; experiment: LAMP-1 immunofluorescence (KE1, disturbance of lysosomal function); type: cell-based, rat; details: for BMC10, KE1: in vitro POD from KE dose-response, LAMP-1 intensity, NRK-52E, 24 h treatment, n = 3; for MOE, KE1: margin of exposure: BMC10 in NRK-52E vs rat plasma/serum concentration (cmax or css)
Protocol: (§1) For immunocytochemistry experiments, cells were seeded into 8-well chamber slides (Ibidi) at a density of 140 cells per µL in 300 µL growth medium and were allowed to grow for 48 h (NRK-52E) or 10 d (RPTEC/TERT1) respectively. For treatment, stock solutions (1,000 µM) of compounds dissolved in growth medium were freshly prepared and serial dilutions were made before exposure of cells for 24 h. After treatment, cells were washed twice with 150 µL PBS and fixed with 150 µL 4% paraformaldehyde in 1 x PBS for 10 min at room temperature. After fixation, cells were washed 10 min with 150 µL PBS on an orbital shaker followed by permeabilization with 150 µL 0.2% Triton X-100 in 1 x PBS for 5 min at room temperature on an orbital shaker. The permeabilized cells were washed twice with 1 x PBS (150 µL) for 10 min at room temperature on an orbital shaker and then incubated with 150 µL 5% BSA dissolved in 1 x PBS for 1 h at room temperature to block unspecific binding sites. After blocking, 100 µL primary antibody diluted 1:100 in 1% BSA in 1 x PBS were directly pipetted onto the cells and incubated overnight at 4°C. The following antibodies were employed for NRK-52E cells: Anti-LAMP-1 monoclonal IgG1 kappa mouse antibody (Santa Cruz; sc-20011), anti-Cathepsin D mouse monoclonal IgG2 kappa antibody (Santa Cruz; sc-377124); for RPTEC/TERT1 cells: Anti-LAMP-2 monoclonal mouse antibody (Santa Cruz; sc-18822), anti-Cathepsin D mouse monoclonal IgG2b kappa (Novus Biologicals; NBP1-04278); for both cell lines anti-megalin mouse monoclonal IgG1 antibody (Santa Cruz, sc-515772).
(§2) After incubation with primary antibody, cells were washed three times for 15 min with 0.2% Tween in 1 x PBS (150 µL) on an orbital shaker. Cells were incubated for 1 h at room temperature with 100 µL CFL 488-conjugated mouse IgG kappa binding protein (1:50) (m-IgGκ BP-CFL 488; Santa Cruz, sc-516176). After incubation the cells were washed three times for 15 min with 0.2% Tween in 1 x PBS on an orbital shaker and once with 150 µL sterile water. […] To preserve fluorescence 50–100 µL DAPI mounting medium (Vectashield®; Vectorlab, Biozol) was added to the cells and chamber slides were stored at 4°C in the dark until image acquisition.
(§3) Images were taken with a TCS SP5 II confocal microscope with an HCX PL APO lambda blue 63.0 × 1.40 OIL UV objective (Leica Microsystems, Wetzlar, GER) (n = 10 cells/treatment group). […] Before quantification, images were blinded and randomized. Quantification of fluorescence intensity was performed using NIH Image® software. […] The mean values of the pixel intensities were automatically calculated by the software and imported in Excel for further processing.

[2] = test system: NRK-52E cells; experiment: Cathepsin D immunofluorescence (KE2, disruption of lysosomes); type: cell-based, rat; details: for MOE, lowest across KEs: in vitro PODs in NRK-52E vs rat plasma concentrations after human equivalent or nephrotoxic doses
Protocol: as §1, §2, §3

In the case of Colistin, the “BMC10, KE1” value [1] is reported as 36.2 µM, the “MOE, KE1” value [1] is reported as 3.5 – 7.1 and the “MOE, lowest across KEs” value [2] is reported as 1.8.
Polymyxin B was tested, and the “BMC10, KE1” value [1] was 13.7 µM, the “MOE, KE1” value [1] was 1.9 – 2.0 and the “BMC10, KE2” value ([2]; in vitro POD from KE dose-response, cathepsin D intensity, NRK-52E, 24 h treatment, n = 3) was 5.8 µM. The “MOE, lowest across KEs” value [2] was 0.8 and the “MOE, KE2” value ([2]; margin of exposure: BMC10 in NRK-52E vs rat plasma/serum concentration (cmax or css)) was 0.8.
